Results on nine compounds are retold here after US20220267289A1, “SELECTIVE BCRP/ABCG2 TRANSPORTER INHIBITORS AS AGENTS TO ABOLISH RESISTANCE TO ANTI-CANCER AGENTS” (UNIVERSITE GRENOBLE ALPES, priority 2019, published 2022).

One series deals with T1, BCRP/ABCG2 (Homo sapiens, UniProt Q9UNQ0).
T1 sequence (Q9UNQ0 1-655): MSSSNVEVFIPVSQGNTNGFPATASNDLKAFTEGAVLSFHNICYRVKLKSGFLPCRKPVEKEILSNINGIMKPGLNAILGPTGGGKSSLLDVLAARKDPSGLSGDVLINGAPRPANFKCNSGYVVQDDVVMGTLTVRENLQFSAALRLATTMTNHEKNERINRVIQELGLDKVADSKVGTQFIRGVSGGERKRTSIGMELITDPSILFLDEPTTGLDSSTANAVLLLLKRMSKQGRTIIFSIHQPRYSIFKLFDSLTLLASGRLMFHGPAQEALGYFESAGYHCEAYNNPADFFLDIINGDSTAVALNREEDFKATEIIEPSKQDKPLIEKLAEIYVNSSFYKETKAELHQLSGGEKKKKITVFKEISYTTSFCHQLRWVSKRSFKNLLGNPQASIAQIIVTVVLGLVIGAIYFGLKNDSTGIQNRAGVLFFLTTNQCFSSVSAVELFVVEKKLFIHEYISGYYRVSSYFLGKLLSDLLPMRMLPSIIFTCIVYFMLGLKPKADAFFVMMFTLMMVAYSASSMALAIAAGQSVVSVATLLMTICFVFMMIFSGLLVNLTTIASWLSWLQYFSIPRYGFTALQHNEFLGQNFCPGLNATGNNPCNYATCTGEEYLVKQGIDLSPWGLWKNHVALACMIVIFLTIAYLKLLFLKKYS
Put plainly: BCRP-mediated mitoxantrone efflux inhibition, ABCG2-transfected HEK293 cells, flow cytometry. The settings on record: for inhibition at 30 min, 1 μM / inhibition at 30 min, 10 μM / inhibition at 30 min, 1 µM: human, probe mitoxantrone (MX), 4 μM.

A further series deals with T2, P-gp (ABCB1) (Homo sapiens, UniProt P08183).
T2 construct: expressed in transfected cells; host or cells: NIH/3T3
Put plainly: P-gp-mediated rhodamine 123 efflux inhibition (selectivity assay), ABCB1-transfected NIH/3T3 cells. Particulars: probe rhodamine 123 (R123), 0.5 μM R123; for inhibition at 30 min, 1 μM: [Inhibitor] 1 μM; for inhibition at 30 min, 10 μM: [Inhibitor] 10 μM. In kind it is cell-based. As for the experimental part:
(§1) The tests were performed in triplicate.

For another series, the target named is T3, MRP1 (ABCC1) (Homo sapiens, UniProt P33527).
T3 construct: expressed in transfected cells; host or cells: Flp-In 293
The experiment in a line: MRP1-mediated calcein-AM efflux inhibition (selectivity assay), ABCC1-transfected Flp-In 293 cells. In kind it is cell-based. Particulars: probe calcein-AM (cAM), 0.2 μM cAM; for inhibition at 30 min, 1 μM: [Inhibitor] 1 μM; for inhibition at 30 min, 10 μM: [Inhibitor] 10 μM. As for the experimental part: as §1

For series [1] the following is noted: hydrolysis of tertiary butyl ester to inactive metabolite; cited from earlier work.

T2 sequence (P08183 whole entry): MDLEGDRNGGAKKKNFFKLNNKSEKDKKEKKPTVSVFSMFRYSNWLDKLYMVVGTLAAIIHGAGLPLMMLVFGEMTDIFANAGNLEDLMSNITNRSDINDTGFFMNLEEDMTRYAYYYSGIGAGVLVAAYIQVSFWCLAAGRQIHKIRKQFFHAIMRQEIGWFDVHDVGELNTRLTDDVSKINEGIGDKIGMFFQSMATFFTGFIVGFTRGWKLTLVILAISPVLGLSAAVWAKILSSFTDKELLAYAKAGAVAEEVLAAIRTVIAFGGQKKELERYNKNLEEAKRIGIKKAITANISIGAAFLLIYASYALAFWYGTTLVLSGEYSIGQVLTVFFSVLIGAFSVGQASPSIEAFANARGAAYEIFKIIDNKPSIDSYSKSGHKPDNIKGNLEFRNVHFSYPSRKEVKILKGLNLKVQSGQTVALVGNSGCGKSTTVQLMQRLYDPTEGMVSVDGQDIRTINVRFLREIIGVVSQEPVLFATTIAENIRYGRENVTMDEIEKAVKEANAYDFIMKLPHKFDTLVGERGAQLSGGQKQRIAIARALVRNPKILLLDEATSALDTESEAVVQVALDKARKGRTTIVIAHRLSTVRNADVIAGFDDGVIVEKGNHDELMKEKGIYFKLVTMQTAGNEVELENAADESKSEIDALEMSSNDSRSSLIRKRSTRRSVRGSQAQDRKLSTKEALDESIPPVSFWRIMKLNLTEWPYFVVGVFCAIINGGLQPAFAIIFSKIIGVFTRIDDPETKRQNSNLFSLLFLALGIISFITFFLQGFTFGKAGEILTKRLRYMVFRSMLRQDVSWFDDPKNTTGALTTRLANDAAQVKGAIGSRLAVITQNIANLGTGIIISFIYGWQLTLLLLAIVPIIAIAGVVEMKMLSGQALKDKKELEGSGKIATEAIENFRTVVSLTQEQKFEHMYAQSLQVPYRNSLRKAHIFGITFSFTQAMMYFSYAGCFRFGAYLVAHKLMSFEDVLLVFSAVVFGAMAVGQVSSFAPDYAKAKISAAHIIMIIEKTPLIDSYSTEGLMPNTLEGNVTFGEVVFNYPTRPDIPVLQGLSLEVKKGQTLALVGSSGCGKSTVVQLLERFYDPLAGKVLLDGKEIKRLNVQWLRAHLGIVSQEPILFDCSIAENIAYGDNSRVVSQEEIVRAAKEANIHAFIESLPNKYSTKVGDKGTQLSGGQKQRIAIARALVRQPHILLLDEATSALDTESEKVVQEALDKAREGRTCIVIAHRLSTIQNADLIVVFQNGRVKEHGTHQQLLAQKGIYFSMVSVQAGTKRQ
T3 sequence (P33527 whole entry): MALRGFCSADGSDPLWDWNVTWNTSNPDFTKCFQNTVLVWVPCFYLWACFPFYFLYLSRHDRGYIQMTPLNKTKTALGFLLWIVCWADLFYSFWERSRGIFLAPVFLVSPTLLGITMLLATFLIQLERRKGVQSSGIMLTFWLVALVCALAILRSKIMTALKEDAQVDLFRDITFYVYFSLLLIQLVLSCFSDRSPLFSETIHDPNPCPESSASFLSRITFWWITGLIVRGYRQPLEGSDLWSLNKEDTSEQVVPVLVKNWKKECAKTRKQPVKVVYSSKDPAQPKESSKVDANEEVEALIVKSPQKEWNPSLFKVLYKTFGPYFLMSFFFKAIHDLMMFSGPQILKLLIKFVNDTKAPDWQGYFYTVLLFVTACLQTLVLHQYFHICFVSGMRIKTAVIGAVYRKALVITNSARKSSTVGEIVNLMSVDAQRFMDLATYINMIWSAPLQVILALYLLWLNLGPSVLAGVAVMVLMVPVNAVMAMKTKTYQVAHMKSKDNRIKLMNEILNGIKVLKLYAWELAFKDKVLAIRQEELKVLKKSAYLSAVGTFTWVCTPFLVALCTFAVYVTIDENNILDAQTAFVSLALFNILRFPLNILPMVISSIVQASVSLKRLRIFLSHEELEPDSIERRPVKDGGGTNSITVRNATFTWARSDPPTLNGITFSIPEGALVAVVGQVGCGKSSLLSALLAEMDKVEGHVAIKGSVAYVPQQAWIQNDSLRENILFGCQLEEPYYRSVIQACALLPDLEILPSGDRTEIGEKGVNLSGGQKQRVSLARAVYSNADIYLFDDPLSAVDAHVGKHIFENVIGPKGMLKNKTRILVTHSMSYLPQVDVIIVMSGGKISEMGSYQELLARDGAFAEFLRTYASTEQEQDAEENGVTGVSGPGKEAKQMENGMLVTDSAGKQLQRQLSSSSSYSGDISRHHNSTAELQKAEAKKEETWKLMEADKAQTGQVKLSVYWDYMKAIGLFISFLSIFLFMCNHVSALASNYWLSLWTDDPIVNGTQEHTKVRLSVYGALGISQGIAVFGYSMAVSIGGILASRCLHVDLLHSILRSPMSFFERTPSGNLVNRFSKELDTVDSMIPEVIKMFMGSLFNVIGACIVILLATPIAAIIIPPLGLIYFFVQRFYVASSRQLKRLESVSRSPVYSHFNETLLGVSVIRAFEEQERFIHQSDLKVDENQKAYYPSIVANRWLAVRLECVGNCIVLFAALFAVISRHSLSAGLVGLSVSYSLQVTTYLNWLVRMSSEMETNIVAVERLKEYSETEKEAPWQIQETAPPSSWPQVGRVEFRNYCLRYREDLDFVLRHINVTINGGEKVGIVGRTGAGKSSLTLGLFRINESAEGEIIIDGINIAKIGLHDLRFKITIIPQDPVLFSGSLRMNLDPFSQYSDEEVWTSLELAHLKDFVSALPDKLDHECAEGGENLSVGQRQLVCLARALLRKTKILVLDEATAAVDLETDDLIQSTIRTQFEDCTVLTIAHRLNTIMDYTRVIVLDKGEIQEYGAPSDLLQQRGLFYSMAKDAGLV
Method for BCRP/ABCG2: The cells were seeded in 96-well plates at a density of 5×10^4 cells/well in 200 μL of medium and incubated overnight. Then the growth medium was changed to fresh medium containing the compounds and in the presence of 4 μM MX as a fluorescent probe for BCRP-mediated efflux at a final concentration of 0.5% (v/v) DMSO. After 30 min incubation at 37° C., the medium was removed, and the cells were washed with 100 μL of Dulbecco's phosphate-buffered saline (DPBS) followed by dissociation of the cells for 5 min at 37° C. mediated by 25 μL trypsin. Finally, trypsin was neutralised with 175 μL of DPBS ice-cold with 2% bovine serum albumin (BSA) and the cells were carefully resuspended. As a selectivity assay, the same experiment was performed for P-gp and MRP1-mediated efflux with 0.5 μM R123 or 0.2 μM cAM as respective fluorescent substrates instead of MX.
Intracellular fluorescence was measured with a MacsQUANT VRB Analyzer flow cytometer (Miltenyi Biotec) with at least 5000 events recorded. While MX was excited at 635 nm and the fluorescence emission recorded in a 655-730 nm window, R123 and cAM were excited at 488 nm and recorded in a 525/50 nm filter. The compound inhibition yield was estimated by the following equation:
where G2FA is the fluorescence emission (a.u.) of accumulated fluorophore in cells expressing the efflux pump incubated with a fluorescent substrate and the test compound. G2FBG is the resulting background fluorescence emission (a.u.) in cells transfected with ABCG2 (no substrate or test compound). G2S is the fluorescence emission (a.u.) of accumulated fluorophore in cells expressing the efflux pump incubated with substrate only. HEKFA is the fluorescence emission (a.u.) of accumulated fluorophore in control cells incubated with the substrate and test compound. HEKFBG is the resulting background fluorescence emission (a.u.) in control cells (no substrate or test compound). All values are given as the geometric mean fluorescence emission (a.u.) in a 655-730 nm filter (635 nm excitation) measured over 5000 events. The tests were performed in triplicate.

The melting point is the temperature of the solid-liquid transition. For orientation: IC50 means the concentration that gives 50% inhibition. A high value points to weaker potency in that assay. The inhibition is the relative decrease from the control value, in per cent. For `CCC(C)[C@H](NC(=O)c1cc(=O)c2c(OCc3ccccc3Br)cccc2o1)C(=O)OC` (some centres unmarked) [5a (series 1)], the melting point was 123.1 to 125.7 °C. Also, at BCRP/ABCG2, half-maximal inhibition (IC50) required 100 ± 10 nM; the inhibition at 30 min, 1 μM was found to be 78 ± 9%; the inhibition at 30 min, 10 μM came out at 143 ± 22%.

`COC(=O)[C@H](CC(C)C)NC(=O)c1cc(=O)c2c(OCc3ccccc3Br)cccc2o1` [5c (series 1), methyl (5-((2-bromobenzyl)oxy)-4-oxo-4H-chromene-2-carbonylamino)-L-leucinate] showed a melting point of 60.3 to 60.4 °C. Also, on P-gp (ABCB1), the inhibition at 30 min, 1 μM is 7 ± 1.1% and the inhibition at 30 min, 10 μM was 4.8 ± 0.7%. Moreover, at MRP1 (ABCC1), the inhibition at 30 min, 1 μM was 20.2 ± 2.7% and the inhibition at 30 min, 10 μM was 19.2 ± 2.2%. On BCRP/ABCG2, the IC50 was 140 ± 40 nM; the inhibition at 30 min, 1 µM came to 114%; the inhibition at 30 min, 1 μM was 115 ± 17%; the inhibition at 30 min, 10 μM worked out at 102 ± 21.7%.

On to `COC(=O)[C@@H](NC(=O)c1cc(=O)c2c(OCc3ccccc3Br)cccc2o1)C(C)C` [5d (series 1), methyl (5-((2-bromobenzyl)oxy)-4-oxo-4H-chromene-2-carbonylamino)-L-valinate], for which the melting point lay within 127 to 128.2 °C. At P-gp (ABCB1), the inhibition at 30 min, 1 μM came to 7.9 ± 0.7% and the inhibition at 30 min, 10 μM amounted to 6.5 ± 1.9%. On MRP1 (ABCC1), the inhibition at 30 min, 1 μM was 12.6 ± 1.3% and the inhibition at 30 min, 10 μM is 17.8 ± 0.9%. On BCRP/ABCG2, inhibition was half-maximal at 50 ± 30 nM (IC50); the inhibition at 30 min, 1 µM was determined as 86.6%; the inhibition at 30 min, 1 μM stood at 87 ± 7%; the inhibition at 30 min, 10 μM was determined as 148 ± 6.7%.

`COC(=O)[C@H](Cc1c[nH]c2ccccc12)NC(=O)c1cc(=O)c2c(OCc3ccccc3Br)cccc2o1` [5g (series 1), methyl (5-((2-bromobenzyl)oxy)-4-oxo-4H-chromene-2-carbonylamino)-L-tryptophanate] returned a melting point of 250 to 252.8 °C. Besides, at P-gp (ABCB1), the inhibition at 30 min, 1 μM turned out to be 7.4 ± 0.3% and the inhibition at 30 min, 10 μM turned out to be 5.3 ± 0.5%. Besides, on MRP1 (ABCC1), the inhibition at 30 min, 1 μM was 23 ± 2.5% and the inhibition at 30 min, 10 μM is 16 ± 2.5%. Also, on BCRP/ABCG2, the inhibition at 30 min, 1 µM was 93.7%; the inhibition at 30 min, 1 μM was 93.7 ± 17%; the inhibition at 30 min, 10 μM turned out to be 39.7 ± 3.7%.

With `COC(=O)[C@H](Cc1c[nH]c2ccccc12)NC(=O)c1cc(=O)c2c(OCc3ccc(Br)cc3)cccc2o1` [5h (series 1), methyl (5-((4-bromobenzyl)oxy)-4-oxo-4H-chromene-2-carbonylamino)-L-tryptophanate], the melting point fell in the range of 235.3 to 236.2 °C. On P-gp (ABCB1), the inhibition at 30 min, 1 μM was determined as 7.4 ± 2.5% and the inhibition at 30 min, 10 μM stood at 6.6 ± 1.4%. Moreover, on MRP1 (ABCC1), the inhibition at 30 min, 1 μM is 10.3% and the inhibition at 30 min, 10 μM is 17.4%. Besides, at BCRP/ABCG2, half-maximal inhibition (IC50) required 480 ± 70 nM; the inhibition at 30 min, 1 µM is 96.4%; the inhibition at 30 min, 1 μM was 92 ± 15%; the inhibition at 30 min, 10 μM amounted to 87.7 ± 12%.

For `COC(=O)[C@@H](Cc1c[nH]c2ccccc12)NC(=O)c1cc(=O)c2c(OCc3ccc(Br)cc3)cccc2o1` [5i (series 1), methyl (5-((4-bromobenzyl)oxy)-4-oxo-4H-chromene-2-carbonylamino)-D-tryptophanate], the melting point fell in the range of 236.2 to 237.9 °C. Moreover, on P-gp (ABCB1), the inhibition at 30 min, 1 μM was 7.2 ± 1.3% and the inhibition at 30 min, 10 μM came out at 6.1 ± 1.1%. Besides, on MRP1 (ABCC1), the inhibition at 30 min, 1 μM is 11.9% and the inhibition at 30 min, 10 μM was 12.6%. Also, on BCRP/ABCG2, the IC50 was determined as 290 ± 50 nM; the inhibition at 30 min, 1 µM was 84.8%; the inhibition at 30 min, 1 μM was determined as 85 ± 12%; the inhibition at 30 min, 10 μM was determined as 96.3 ± 19%.

`CCC(C)[C@H](NC(=O)c1cc(=O)c2c(OCc3ccccc3Br)cccc2o1)C(=O)O` (stereo partly drawn) [6a (series 1), (5-((2-bromobenzyl)oxy)-4-oxo-4H-chromene-2-carbonylamino)-L-alloisoleucine] had a melting point of 242.8 to 243.7 °C. On P-gp (ABCB1), the inhibition at 30 min, 1 μM was 7.8% and the inhibition at 30 min, 10 μM amounted to 7.9 ± 2.3%. For the same compound, at MRP1 (ABCC1), the inhibition at 30 min, 1 μM was 17.1% and the inhibition at 30 min, 10 μM is 13.1 ± 2.4%. Moreover, on BCRP/ABCG2, the inhibition at 30 min, 1 μM was determined as 0% and the inhibition at 30 min, 10 μM was 1.6 ± 3.1%.

As for `O=C(N[C@H](Cc1c[nH]c2ccccc12)C(=O)O)c1cc(=O)c2c(OCc3ccc(Br)cc3)cccc2o1` [6e (series 1), (5-((4-bromobenzyl)oxy)-4-oxo-4H-chromene-2-carbonylamino)-D-tryptophan], the melting point was 185.5 to 186.7 °C. Moreover, at BCRP/ABCG2, the inhibition at 30 min, 1 μM was 6.1 ± 0.6% and the inhibition at 30 min, 10 μM stood at 11.2 ± 2%.

As to `COc1ccc2c3c([nH]c2c1)[C@H](CC(C)C)N1C(=O)[C@H](CCC(=O)OC(C)(C)C)NC(=O)[C@@H]1C3` [Ko143], in series [1], the “rapidly metabolised, time” value was 60 min.
